Assay results reported in patent US20260027116A1, “Methods of Treating Chronic Graft-Versus-Host Disease Following Allogeneic Hematopoietic Stem Cell Transplantation” (Kadmon Corporation, LLC, priority 2022, published 2026).

Test system: lung function
Experiment: Example 1: percent predicted FEV1 change from baseline
Assay type: in vivo, human
Protocol: Change From Baseline in Percent Predicted Forced Expiratory Volume in 1 Second (FEV1) at Each Specified Time Points. FEV1 was the volume of air exhaled from the lungs in the first second of a forced expiration as measured by spirometer. Baseline value was defined as valid and last non-missing value obtained within 28 days prior to participant receiving first study medication. EOT visit was performed within 3 days after the participant's last dose of study drug. […] Analysis was performed on mITT population. Here, ‘number analyzed’=participants with available data for each specified category. Here, ‘O’ in the number analyzed field signifies that none of the participants were available for the analysis at the specified time points.

CC(C)NC(=O)COc1cccc(-c2nc(Nc3ccc4[nH]ncc4c3)c3ccccc3n2)c1 [Belumosudil, 2-{3-[4-(1H-indazol-5-ylamino)-2-quinazolinyl]phenoxy}-N-(propan-2-yl) acetamide]
Change From Baseline in Percent Predicted Forced Expiratory Volume in 1 Second (FEV1), Mean (Standard Deviation) (Cohort 1: 200 mg QD, Cycle 3, Day 1): 1.1 (4.8) percent predicted FEV1
Change From Baseline in Percent Predicted Forced Expiratory Volume in 1 Second (FEV1), Mean (Standard Deviation) (Cohort 1: 200 mg QD, Cycle 5, Day 1): −3.3 (8.0) percent predicted FEV1
Change From Baseline in Percent Predicted Forced Expiratory Volume in 1 Second (FEV1), Mean (Standard Deviation) (Cohort 1: 200 mg QD, Cycle 7, Day 1): −3.5 (4.6) percent predicted FEV1
Change From Baseline in Percent Predicted Forced Expiratory Volume in 1 Second (FEV1), Mean (Standard Deviation) (Cohort 1: 200 mg QD, Cycle 9, Day 1): −1.7 (6.8) percent predicted FEV1
Change From Baseline in Percent Predicted Forced Expiratory Volume in 1 Second (FEV1), Mean (Standard Deviation) (Cohort 1: 200 mg QD, Cycle 11, Day 1): −4.3 (5.2) percent predicted FEV1
Change From Baseline in Percent Predicted Forced Expiratory Volume in 1 Second (FEV1), Mean (Standard Deviation) (Cohort 1: 200 mg QD, Cycle 12, Day 1): −2.0 (—) percent predicted FEV1
Change From Baseline in Percent Predicted Forced Expiratory Volume in 1 Second (FEV1), Mean (Standard Deviation) (Cohort 1: 200 mg QD, Cycle 13, Day 1): −5.9 (9.3) percent predicted FEV1
Change From Baseline in Percent Predicted Forced Expiratory Volume in 1 Second (FEV1), Mean (Standard Deviation) (Cohort 1: 200 mg QD, Cycle 14, Day 1): 2.0 (—) percent predicted FEV1
Change From Baseline in Percent Predicted Forced Expiratory Volume in 1 Second (FEV1), Mean (Standard Deviation) (Cohort 1: 200 mg QD, Cycle 15, Day 1): −6.7 (11.7) percent predicted FEV1
Change From Baseline in Percent Predicted Forced Expiratory Volume in 1 Second (FEV1), Mean (Standard Deviation) (Cohort 1: 200 mg QD, Cycle 16, Day 1): 2.0 (—) percent predicted FEV1
Change From Baseline in Percent Predicted Forced Expiratory Volume in 1 Second (FEV1), Mean (Standard Deviation) (Cohort 1: 200 mg QD, Cycle 17, Day 1): −5.3 (9.1) percent predicted FEV1
Change From Baseline in Percent Predicted Forced Expiratory Volume in 1 Second (FEV1), Mean (Standard Deviation) (Cohort 1: 200 mg QD, Cycle 19, Day 1): −5.2 (9.9) percent predicted FEV1
Change From Baseline in Percent Predicted Forced Expiratory Volume in 1 Second (FEV1), Mean (Standard Deviation) (Cohort 1: 200 mg QD, Cycle 25, Day 1): −11.0 (15.6) percent predicted FEV1
Change From Baseline in Percent Predicted Forced Expiratory Volume in 1 Second (FEV1), Mean (Standard Deviation) (Cohort 1: 200 mg QD, Cycle 26, Day 1): 0.0 (—) percent predicted FEV1
Change From Baseline in Percent Predicted Forced Expiratory Volume in 1 Second (FEV1), Mean (Standard Deviation) (Cohort 1: 200 mg QD, Cycle 27, Day 1): −6.5 (13.4) percent predicted FEV1
Change From Baseline in Percent Predicted Forced Expiratory Volume in 1 Second (FEV1), Mean (Standard Deviation) (Cohort 1: 200 mg QD, Cycle 29, Day 1): −0.5 (9.2) percent predicted FEV1
Change From Baseline in Percent Predicted Forced Expiratory Volume in 1 Second (FEV1), Mean (Standard Deviation) (Cohort 1: 200 mg QD, Cycle 30, Day 1): 3.0 (—) percent predicted FEV1
Change From Baseline in Percent Predicted Forced Expiratory Volume in 1 Second (FEV1), Mean (Standard Deviation) (Cohort 1: 200 mg QD, Cycle 31, Day 1): −3.5 (12.0) percent predicted FEV1
Change From Baseline in Percent Predicted Forced Expiratory Volume in 1 Second (FEV1), Mean (Standard Deviation) (Cohort 1: 200 mg QD, Cycle 32, Day 1): 1.0 (—) percent predicted FEV1
Change From Baseline in Percent Predicted Forced Expiratory Volume in 1 Second (FEV1), Mean (Standard Deviation) (Cohort 1: 200 mg QD, Cycle 33, Day 1): 5.0 (5.7) percent predicted FEV1
Change From Baseline in Percent Predicted Forced Expiratory Volume in 1 Second (FEV1), Mean (Standard Deviation) (Cohort 1: 200 mg QD, Cycle 34, Day 1): 2.0 (—) percent predicted FEV1
Change From Baseline in Percent Predicted Forced Expiratory Volume in 1 Second (FEV1), Mean (Standard Deviation) (Cohort 1: 200 mg QD, Cycle 35, Day 1): 5.0 (0.0) percent predicted FEV1
Change From Baseline in Percent Predicted Forced Expiratory Volume in 1 Second (FEV1), Mean (Standard Deviation) (Cohort 1: 200 mg QD, Cycle 36, Day 1): 3.0 (—) percent predicted FEV1
Change From Baseline in Percent Predicted Forced Expiratory Volume in 1 Second (FEV1), Mean (Standard Deviation) (Cohort 1: 200 mg QD, Cycle 37, Day 1): −1.0 (—) percent predicted FEV1
Change From Baseline in Percent Predicted Forced Expiratory Volume in 1 Second (FEV1), Mean (Standard Deviation) (Cohort 1: 200 mg QD, Cycle 38, Day 1): 1.0 (—) percent predicted FEV1
Change From Baseline in Percent Predicted Forced Expiratory Volume in 1 Second (FEV1), Mean (Standard Deviation) (Cohort 1: 200 mg QD, Cycle 39, Day 1): 10.0 (2.8) percent predicted FEV1
Change From Baseline in Percent Predicted Forced Expiratory Volume in 1 Second (FEV1), Mean (Standard Deviation) (Cohort 1: 200 mg QD, Cycle 40, Day 1): −1.0 (—) percent predicted FEV1
Change From Baseline in Percent Predicted Forced Expiratory Volume in 1 Second (FEV1), Mean (Standard Deviation) (Cohort 1: 200 mg QD, Cycle 41, Day 1): 15.0 (—) percent predicted FEV1
Change From Baseline in Percent Predicted Forced Expiratory Volume in 1 Second (FEV1), Mean (Standard Deviation) (Cohort 1: 200 mg QD, Cycle 43, Day 1): 16.0 (—) percent predicted FEV1
Change From Baseline in Percent Predicted Forced Expiratory Volume in 1 Second (FEV1), Mean (Standard Deviation) (Cohort 1: 200 mg QD, Cycle 47, Day 1): 5.0 (—) percent predicted FEV1
Change From Baseline in Percent Predicted Forced Expiratory Volume in 1 Second (FEV1), Mean (Standard Deviation) (Cohort 1: 200 mg QD, Cycle 48, Day 1): 3.0 (—) percent predicted FEV1
Change From Baseline in Percent Predicted Forced Expiratory Volume in 1 Second (FEV1), Mean (Standard Deviation) (Cohort 1: 200 mg QD, Cycle 49, Day 1): 8.0 (—) percent predicted FEV1
Change From Baseline in Percent Predicted Forced Expiratory Volume in 1 Second (FEV1), Mean (Standard Deviation) (Cohort 1: 200 mg QD, Cycle 51, Day 1): 8.0 (—) percent predicted FEV1
Change From Baseline in Percent Predicted Forced Expiratory Volume in 1 Second (FEV1), Mean (Standard Deviation) (Cohort 1: 200 mg QD, Cycle 52, Day 1): 0.0 (—) percent predicted FEV1
Change From Baseline in Percent Predicted Forced Expiratory Volume in 1 Second (FEV1), Mean (Standard Deviation) (Cohort 1: 200 mg QD, Cycle 53, Day 1): 9.0 (—) percent predicted FEV1
Change From Baseline in Percent Predicted Forced Expiratory Volume in 1 Second (FEV1), Mean (Standard Deviation) (Cohort 1: 200 mg QD, Cycle 54, Day 1): 4.0 (—) percent predicted FEV1
Change From Baseline in Percent Predicted Forced Expiratory Volume in 1 Second (FEV1), Mean (Standard Deviation) (Cohort 1: 200 mg QD, Cycle 55, Day 1): 13.0 (—) percent predicted FEV1
Change From Baseline in Percent Predicted Forced Expiratory Volume in 1 Second (FEV1), Mean (Standard Deviation) (Cohort 1: 200 mg QD, Cycle 56, Day 1): 4.0 (—) percent predicted FEV1
Change From Baseline in Percent Predicted Forced Expiratory Volume in 1 Second (FEV1), Mean (Standard Deviation) (Cohort 1: 200 mg QD, Cycle 57, Day 1): 13.0 (—) percent predicted FEV1
Change From Baseline in Percent Predicted Forced Expiratory Volume in 1 Second (FEV1), Mean (Standard Deviation) (Cohort 1: 200 mg QD, Cycle 58, Day 1): 5.0 (—) percent predicted FEV1
Change From Baseline in Percent Predicted Forced Expiratory Volume in 1 Second (FEV1), Mean (Standard Deviation) (Cohort 1: 200 mg QD, Cycle 60, Day 1): 4.0 (—) percent predicted FEV1
Change From Baseline in Percent Predicted Forced Expiratory Volume in 1 Second (FEV1), Mean (Standard Deviation) (Cohort 1: 200 mg QD, Cycle 61, Day 1): 10.0 (—) percent predicted FEV1
Change From Baseline in Percent Predicted Forced Expiratory Volume in 1 Second (FEV1), Mean (Standard Deviation) (Cohort 1: 200 mg QD, Cycle 62, Day 1): 2.0 (—) percent predicted FEV1
Change From Baseline in Percent Predicted Forced Expiratory Volume in 1 Second (FEV1), Mean (Standard Deviation) (Cohort 1: 200 mg QD, Cycle 63, Day 1): 13.0 (—) percent predicted FEV1
Change From Baseline in Percent Predicted Forced Expiratory Volume in 1 Second (FEV1), Mean (Standard Deviation) (Cohort 1: 200 mg QD, Cycle 67, Day 1): 14.0 (—) percent predicted FEV1
Change From Baseline in Percent Predicted Forced Expiratory Volume in 1 Second (FEV1), Mean (Standard Deviation) (Cohort 1: 200 mg QD, EOT): −1.4 (9.0) percent predicted FEV1
Change From Baseline in Percent Predicted Forced Expiratory Volume in 1 Second (FEV1), Mean (Standard Deviation) (Cohort 2: 200 mg BID, Cycle 3, Day 1): −1.8 (7.1) percent predicted FEV1
Change From Baseline in Percent Predicted Forced Expiratory Volume in 1 Second (FEV1), Mean (Standard Deviation) (Cohort 2: 200 mg BID, Cycle 5, Day 1): −5.0 (6.5) percent predicted FEV1
Change From Baseline in Percent Predicted Forced Expiratory Volume in 1 Second (FEV1), Mean (Standard Deviation) (Cohort 2: 200 mg BID, Cycle 7, Day 1): −2.6 (9.4) percent predicted FEV1
Change From Baseline in Percent Predicted Forced Expiratory Volume in 1 Second (FEV1), Mean (Standard Deviation) (Cohort 2: 200 mg BID, Cycle 8, Day 1): 1.0 (—) percent predicted FEV1
